Eleven compounds from US8642657B2 (Gruenenthal GmbH, priority 2003, dated 2014) can be followed below.

For data set [1], the target named is T1, rat VR1 (Rattus norvegicus, UniProt O35433).
T1 construct: expressed in transfected cells
Briefly: [3H]resiniferatoxin (RTX) competition binding assay, VR1-transfected CHO cells. As to the method: The pUHG102 VR1 plasmid was transfected into CHO cells containing the pTet Off regulatory plasmid (Clontech). In these cells, expression of the VR1 is repressed in the presence of tetracycline but is induced upon removal of the antibiotic. Stable clones were isolated in culture medium containing puromycin (10 μg/mL) and maintained in HAM F12 medium supplemented with tetracycline (1 μg/mL), 5 μg/ml geniticin, 25 mM HEPES, 10% FBS. Cells utilized for assays were grown in culture medium without antibiotic for 48 h before use. Cells were seeded in T75 cell culture flasks in media without antibiotics and grown to approximately 90% confluence. The flasks were then washed with PBS and harvested in 0.25% trypsin, 1 mM EDTA. The cells were pelleted by gentle centrifugation and stored at −20° C. until assay.
Competition Binding Assay
Binding studies with [^3H]resiniferatoxin (RTX) were carried out as described previously with minor modifications (Szallasi et al., 1992). Binding assay mixtures were set up on ice and contained 50-100 pM [^3H]RTX, various concentrations of competing ligands, 0.25 mg/mL BSA (Cohn fraction V), and about 5×10^5 VR1-transfected cells. The final volume was adjusted to 350 μL with DPBS with Ca^2+ and Mg^2+ and 0.25 mg/mL bovine serum albumin. Non-specific binding was determined in the presence of 100 nM nonradioactive RTX. The binding reaction was initiated by transferring the assay mixtures to a 37° C. water bath and was terminated after a 60 min incubation period by cooling the tubes on ice. To reduce non-specific binding, 200 μg/ml α-glycoprotein was added. Membrane-bound RTX was then separated from the free by pelleting the membranes in a Beckman 12 benchtop centrifuge (15 min, maximal velocity), the tips of the tubes containing the pellets were cut off, and the radioactivity was determined by scintillation counting. Equilibrium binding parameters (Ki and cooperativity) were determined by fitting the Hill equation to the measured values with the aid of the program MicroCal Origin 6.0.
(§1) Initial stocks were dissolved in DMSO. For the binding assays, compounds were diluted in with DPBS with Ca^2+ and Mg^2+ and 0.25 mg/mL bovine serum albumin. For the calcium uptake assays, compounds were diluted in DMEM with 0.25 mg/mL bovine serum albumin.

Data set [2] addresses T1, rat VR1. Put plainly: 45Ca2+-uptake assay in CHO/VR1 cells, antagonism of capsaicin-stimulated uptake. To be noted: 45Ca2+ uptake stimulated by 50 nM capsaicin. In kind it is cell-based. As for the experimental part: as §1
Molecules were characterized to determine whether they were full agonists, partial agonists, or antagonists. For studies of ^45Ca^2+ uptake by CHO/VR1 cells (Tet-off cells), the cells were plated in 24-well plates to yield a cell density 20-40% of that required to produce confluence. The next day the medium was changed to remove the tetracycline and induce VR1 expression. Experiments were performed approximately 36-40 hours after induction. For ^45Ca^2+ uptake assay, cells were incubated for 5 min at 37° C. in a total volume of 400 μL of serum free DMEM (containing 1.8 mM CaCl2) in the presence of 0.25 mg/mL BSA (Sigma), 1 μCi/mL ^45Ca^2+ (5-30 Ci/g from ICN, CA), and increasing concentrations of the compound to be tested. Immediately after the incubation, extracellular ^45Ca^2+ was removed by washing the cells three times with cold DPBS (containing 1.8 mM CaCl2). Then 400 μl RIPA buffer (50 mM Tris pH 7.4; 150 mM NaCl; 1% Triton X-100; 0.1% SDS; 1% sodium deoxycholate) was added to each well in order to lyse the cells. Plates were shaken slowly for 20 min; then 306 μL of cell lysate was transferred from each well into a scintillation vial and radioactivity was determined by scintillation counting. For each data point in each experiment, four wells were assayed. Data from these experiments were analyzed by computer fit to the Hill equation. At least 3 separate experiments were carried out for each compound. In order to determine antagonist activity, studies were performed in exactly the same fashion with the exception that 50 nM capsaicin was added to the assay mixture to stimulate ^45Ca^2+ uptake.

Where [3] appears, read: competition with [3H]RTX, rat VR1 in CHO cells, read-out: Ki (nM) Binding Affinity.

T1 sequence (O35433 whole entry): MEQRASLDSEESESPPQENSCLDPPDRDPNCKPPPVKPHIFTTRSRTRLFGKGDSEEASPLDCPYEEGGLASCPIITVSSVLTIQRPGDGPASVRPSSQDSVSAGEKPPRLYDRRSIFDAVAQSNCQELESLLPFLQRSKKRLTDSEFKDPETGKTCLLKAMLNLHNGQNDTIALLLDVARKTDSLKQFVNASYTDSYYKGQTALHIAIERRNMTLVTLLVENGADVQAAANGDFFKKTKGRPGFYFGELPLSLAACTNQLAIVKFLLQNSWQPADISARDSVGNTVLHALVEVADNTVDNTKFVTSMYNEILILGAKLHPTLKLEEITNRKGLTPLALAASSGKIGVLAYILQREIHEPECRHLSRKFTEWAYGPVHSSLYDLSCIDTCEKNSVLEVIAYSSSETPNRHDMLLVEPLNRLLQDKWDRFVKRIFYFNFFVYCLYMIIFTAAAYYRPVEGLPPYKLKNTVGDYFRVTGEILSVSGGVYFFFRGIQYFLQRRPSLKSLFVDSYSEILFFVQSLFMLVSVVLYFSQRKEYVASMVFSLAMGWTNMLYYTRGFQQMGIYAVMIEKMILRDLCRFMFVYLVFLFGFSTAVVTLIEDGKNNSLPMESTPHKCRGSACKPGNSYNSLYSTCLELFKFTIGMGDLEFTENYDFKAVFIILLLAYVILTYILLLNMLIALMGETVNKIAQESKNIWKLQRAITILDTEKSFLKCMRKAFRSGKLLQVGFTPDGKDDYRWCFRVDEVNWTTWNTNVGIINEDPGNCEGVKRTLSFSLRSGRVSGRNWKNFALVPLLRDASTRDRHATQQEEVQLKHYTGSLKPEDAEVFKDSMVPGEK

Usually Ki stands for the dissociation constant of the complex between target and ligand, obtained from inhibition or displacement. For orientation: melting point means the temperature, or range, at which the solid turns liquid. The compound `Cc1ccc(CC(CNC(=O)C(C)c2ccc(NS(C)(=O)=O)cc2)COC(=O)C(C)(C)C)cc1C` (stereo not drawn) [5-1, N-[2-(3,4-Dimethylbenzyl)-3-pivaloyloxypropyl]-2-[4-(methylsulfonylamino)phenyl]propionamide] returned a melting point of 112 to 115 °C. Also, the Ki on rat VR1 [1] (setting [3]) came out at 119 nM. At rat VR1 [2], this compound displayed a Ki of 38 nM.

In the case of `CC(NC(=S)NCC(COC(=O)C(C)(C)C)Cc1ccc(C(C)(C)C)cc1)c1ccc(NS(C)(=O)=O)cc1` (stereo not drawn) [18-9, N-[2-(4-tert-Butylbenzyl)-3-(pivaloyloxy)propyl]-N′-{1-[4-(methylsulfonylamino)phenyl]ethyl}thiourea], the melting point is 87 °C. The Ki at rat VR1 [1] came out at 42.7 nM. On rat VR1 [2], affinity was put at a Ki of 28.7 nM.

`COc1cc(C(C)(C)C(=O)NCC(COC(=O)C(C)(C)C)Cc2ccc(C)c(C)c2)ccc1NS(C)(=O)=O` (stereo not drawn) [9-3, N-[2-(3,4-Dimethylbenzyl)-3-pivaloyloxypropyl]-2-[3-methoxy-4-(methylsulfonylamino)phenyl]-2-methylpropionamide] returned a melting point of 100 to 103 °C. Further, at rat VR1 [1] (setting [3]), the Ki was determined as 152 nM. At rat VR1 [2], this compound had an inhibition constant Ki of 133 nM.

In turn, `CC(NC(=S)NCC(COC(=O)C(C)(C)C)Cc1ccc(C(C)(C)C)cc1)c1ccc(NS(C)(=O)=O)c(F)c1` (stereo not drawn) [18-14, N-[2-(4-tert-Butylbenzyl)-3-(pivaloyloxy)propyl]-N′-{1-[3-fluoro-4-(methylsulfonylamino)phenyl]ethyl}thiourea] showed a melting point of 78 °C. The compound further showed a Ki at rat VR1 [1] of 37 nM. This compound came in with a Ki at rat VR1 [2] of 9.34 nM.

`CC(C(=O)NCc1ccc(C(C)(C)C)cc1)c1ccc(NS(C)(=O)=O)cc1Cl` (stereo not drawn) [1-67, N-(4-tert-Butylbenzyl)-2-[2-chloro-4-(methylsulfonylamino)phenyl]propionamide] showed a melting point of 134 to 136 °C. Also, on rat VR1 [1] (setting [3]), the inhibitory constant (Ki) amounted to 1420 nM. In addition, the Ki at rat VR1 [2] amounted to 4480 nM.

With `CC(C(=O)NCc1ccc(Cl)cc1)c1ccc(NS(C)(=O)=O)c(Cl)c1` (stereo not drawn) [4-2, N-(4-Chlorobenzyl)-2-[3-chloro-4-(methylsulfonylamino)phenyl]propionamide], the melting point was 134 to 135 °C. In addition, the Ki on rat VR1 [1] stood at 729 nM. On rat VR1 [2], this compound displayed an inhibition constant (Ki) of 447 nM.

Regarding `CC(C(=O)NCc1ccc(-c2ccccc2)cc1)c1ccc(NS(C)(=O)=O)c(F)c1` (stereo not drawn) [4-11, N-(4-Biphenylmethyl)-2-[3-fluoro-4-(methylsulfonylamino)phenyl]propionamide], the melting point fell in the range of 155 to 157 °C. Besides, the Ki at rat VR1 [1] (setting [3]) is 1750 nM. Moreover, the Ki at rat VR1 [2] is 261 nM.

Compound `C[C@H](C(=O)NC[C@@H](COC(=O)C(C)(C)C)Cc1ccc(C(C)(C)C)cc1)c1ccc(NS(C)(=O)=O)c(F)c1` [6-10, N-[(2S)-2-(4-t-Butylbenzyl)-3-(pivaloyloxy)propyl]-(2S)-2-[3-fluoro-4-(methylsulfonylamino)phenyl]propionamide] yielded a melting point of 43 to 45 °C. This compound yielded a Ki on rat VR1 [1] of 6.58 nM. For the same compound, at rat VR1 [2], the affinity, expressed as Ki, was 10.9 nM.

`CC(C(=O)NCCc1ccc(C(C)(C)C)cc1)c1ccc(NS(C)(=O)=O)c(F)c1` (stereo not drawn) [4-14, N-[2-(4-t-Butylphenyl)ethyl]-2-[3-fluoro-4-(methylsulfonylamino)phenyl]propionamide] returned a melting point of 124 to 126 °C. For the same compound, the Ki at rat VR1 [1] (setting [3]) was determined as 553 nM. This compound also came in with an inhibitory constant (Ki) at rat VR1 [2] of 42.6 nM.

`CC(C)(C)c1ccc(CNC(=S)NC(c2ccccc2)c2ccc(NS(C)(=O)=O)c(F)c2)cc1` (stereo not drawn) [20-14] yielded a melting point of 191 °C. For the same compound, the Ki at rat VR1 [1] (setting [3]) was determined as 100 nM. At rat VR1 [2], this compound yielded an inhibition constant Ki of 861 nM.

Regarding `C[C@@H](NC(=S)NC[C@H](COC(=O)C(C)(C)C)Cc1ccc(C(C)(C)C)cc1)c1ccc(NS(C)(=O)=O)cc1` [18-11, N-[(2R)-2-(4-tert-Butylbenzyl)-3-(pivaloyloxy)propyl]-N′-{(1R)-1-[4-(methylsulfonylamino)phenyl]ethyl}thiourea], the melting point is 85 to 87 °C. Besides, on rat VR1 [1], the inhibition constant Ki came out at 15.7 nM. The same compound returned an inhibition constant Ki on rat VR1 [2] of 53 nM.
